Publication PMC11823630, “In vitro potentiation of tetracyclines in Pseudomonas aeruginosa by RW01, a new cyclic peptide” (Antimicrobial Agents and Chemotherapy, 2024)
In brackets after ≈: the same amount, converted by molar mass.

What was measured:
P. aeruginosa 125A = assay: MIC, CLSI broth microdilution in BD Phoenix AST Broth; type: cell-based, Pseudomonas aeruginosa; details: Pseudomonas aeruginosa; strain 125A; agent alone; 37°C, 18–22 h; three biological replicates
Procedure: (§1) MIC for RW01 was also tested.
(§2) FIC of RW01 (FICRW01)=MIC of RW01 in combination/MIC of RW01 alone,FIC of antibiotic (FICATB)=MIC of ATB in combination/MIC of ATB alone,FICI=FICRW01 +FICATB.
(§3) FICI was interpreted as follows: synergistic effect if FICI is ≤0.5; additive effect if 0.5 < FICI ≤ 1.0; indifferent effect if 1.0 < FICI ≤ 2.0; and finally, antagonistic effect if FICI is >2.0. The average FICI considering the antibiotic MIC (no growth in any of the replicates) at different concentrations of RW01 was calculated ([28]).

P. aeruginosa 125B = assay: as above; type: cell-based, Pseudomonas aeruginosa; details: Pseudomonas aeruginosa; strain 125B; agent alone; 37°C, 18–22 h; three biological replicates
Procedure: as §1, §2, §3

P. aeruginosa 41A = assay: as above; type: cell-based, Pseudomonas aeruginosa; details: Pseudomonas aeruginosa; strain 41A; agent alone; 37°C, 18–22 h; three biological replicates
Procedure: as §1, §2, §3

P. aeruginosa 41B = assay: as above; type: cell-based, Pseudomonas aeruginosa; details: Pseudomonas aeruginosa; strain 41B; agent alone; 37°C, 18–22 h; three biological replicates
Procedure: as §1, §2, §3

P. aeruginosa PAO1 = assay: as above; type: cell-based, Pseudomonas aeruginosa; details: Pseudomonas aeruginosa, PAO1, strain PAO1; agent alone; 37°C, 18–22 h; three biological replicates; read-out: MIC
Procedure: as §1, §2, §3

P. aeruginosa PAOUW = assay: as above; type: cell-based, Pseudomonas aeruginosa; details: Pseudomonas aeruginosa, strain PAOUW; agent alone; 37°C, 18–22 h; three biological replicates; read-out: MIC
Procedure: as §1, §2, §3

P. aeruginosa PAOUW∆oprF = assay: as above; type: cell-based, Pseudomonas aeruginosa; details: Pseudomonas aeruginosa, strain PAOUWΔoprF; agent alone; 37°C, 18–22 h; three biological replicates
Procedure: as §1, §2, §3

P. aeruginosa PAOΔmexR = assay: as above; type: cell-based, Pseudomonas aeruginosa; details: Pseudomonas aeruginosa
Procedure: as §1, §2, §3

P. aeruginosa PAOΔmexZ = assay: as above; type: cell-based, Pseudomonas aeruginosa; details: Pseudomonas aeruginosa, strain PAOΔmexZ; agent alone; 37°C, 18–22 h; three biological replicates
Procedure: as §1, §2, §3

P. aeruginosa PAOΔoprM = assay: as above; type: cell-based, Pseudomonas aeruginosa; details: Pseudomonas aeruginosa
Procedure: as §1, §2, §3

[1] = system: PAO1 mutant MIN16_3, nfxB(nt79∆14), pilB(N349K); assay: MIC, Sensititre custom plate; type: cell-based; details: Pseudomonas aeruginosa, PAO1, read-out: MIC, Sensititre
Procedure: (§4) Selection of resistant mutants was performed for minocycline with and without RW01 in three independent replicates for wild-type P. aeruginosa reference strain PAO1. Tubes containing Mueller-Hinton broth (MHB) were inoculated and incubated for 24 h at 37°C. Afterward, 1/100 dilution of each tube was incubated at 37°C in MHB to late-exponential growth phase, measured by spectrophotometry at OD600. […] A control plate without antibiotic was included as inoculum control. After overnight incubation, colony counting of each treatment was performed to analyze the generation of resistant population. The mutant prevention concentration (MPC) was defined as the lowest concentration of antibiotic yielding no growth of resistant mutants. Selected mutants were checked for susceptibility profiles by using a Sensititre custom plate (Thermo Fisher Scientific, Massachusetts, USA) for Gram-negative bacteria, following the manufacturer’s instructions.

[2] = system: PAO1 mutant MIN16_4, nalC(T50P), pilM(Q62X); assay: MIC, Sensititre custom plate; type: cell-based; details: Pseudomonas aeruginosa, PAO1, read-out: MIC, Sensititre
Procedure: as §4

[3] = system: PAO1 mutant MIN1_RW01_2, mexR(G58E), pilB(G326D), hutC(Y181X); assay: MIC, Sensititre custom plate; type: cell-based; details: Pseudomonas aeruginosa, PAO1, read-out: MIC, Sensititre
Procedure: as §4

[4] = system: PAO1 mutant MIN2_RW01_3, parS(V152A); assay: MIC, Sensititre custom plate; type: cell-based; details: Pseudomonas aeruginosa, PAO1, read-out: MIC, Sensititre
Procedure: as §4

[5] = system: PAO1 mutant MIN2_RW01_4, pmrB(M292T); assay: MIC, Sensititre custom plate; type: cell-based; details: Pseudomonas aeruginosa, PAO1, read-out: MIC, Sensititre
Procedure: as §4

[6] = system: PAO1 mutant MIN32_1, mexR(R63H), pilB(N349K), PA0646(V316G); assay: MIC, Sensititre custom plate; type: cell-based; details: Pseudomonas aeruginosa, PAO1, read-out: MIC, Sensititre
Procedure: as §4

[7] = system: PAO1 mutant MIN4_RW01_1, pmrB(R429H); assay: MIC, Sensititre custom plate; type: cell-based; details: Pseudomonas aeruginosa, PAO1, read-out: MIC, Sensititre
Procedure: as §4

[8] = system: PAO1 mutant MIN8_3, pilZ(nt18InsT); assay: MIC, Sensititre custom plate; type: cell-based; details: Pseudomonas aeruginosa, PAO1, read-out: MIC, Sensititre
Procedure: as §4

[9] = system: PAO1 mutant MIN8_4, pilZ(nt18InsT); assay: MIC, Sensititre custom plate; type: cell-based; details: Pseudomonas aeruginosa, PAO1, read-out: MIC, Sensititre
Procedure: as §4

P. aeruginosa PAO1, WT = assay: MIC, Sensititre custom plate; type: cell-based; details: Pseudomonas aeruginosa, PAO1, read-out: MIC, Sensititre
Procedure: as §4

[10] = system: PAO1 mutant MIN16_1, nalD(T43P); assay: MIC, Sensititre custom plate; type: cell-based; details: Pseudomonas aeruginosa, PAO1, read-out: MIC, Sensititre
Procedure: as §4

[11] = system: PAO1 mutant MIN16_2, nalC(aa9∆4), pilQ(nt46∆1); assay: MIC, Sensititre custom plate; type: cell-based; details: Pseudomonas aeruginosa, PAO1, read-out: MIC, Sensititre
Procedure: as §4

[12] = system: PAO1 mutant MIN1_RW01_1, pmrB(Y98N); assay: MIC, Sensititre custom plate; type: cell-based; details: Pseudomonas aeruginosa, PAO1, read-out: MIC, Sensititre
Procedure: as §4

[13] = system: PAO1 mutant MIN1_RW01_3, pmrB(V215L); assay: MIC, Sensititre custom plate; type: cell-based; details: Pseudomonas aeruginosa, PAO1, read-out: MIC, Sensititre
Procedure: as §4

[14] = system: PAO1 mutant MIN2_RW01_1, pmrB(V215L); assay: MIC, Sensititre custom plate; type: cell-based; details: Pseudomonas aeruginosa, PAO1, read-out: MIC, Sensititre
Procedure: as §4

[15] = system: PAO1 mutant MIN2_RW01_2, pmrB(M292T); assay: MIC, Sensititre custom plate; type: cell-based; details: Pseudomonas aeruginosa, PAO1, read-out: MIC, Sensititre
Procedure: as §4

[16] = system: PAO1 mutant MIN4_RW01_3, pmrB(M292T); assay: MIC, Sensititre custom plate; type: cell-based; details: Pseudomonas aeruginosa, PAO1, read-out: MIC, Sensititre
Procedure: as §4

[17] = system: PAO1 mutant MIN4_RW01_4, pmrB(Y98N); assay: MIC, Sensititre custom plate; type: cell-based; details: Pseudomonas aeruginosa, PAO1, read-out: MIC, Sensititre
Procedure: as §4

[18] = system: PAO1 mutant MIN8_1, nalD(R3C), pilM(Q62X); assay: MIC, Sensititre custom plate; type: cell-based; details: Pseudomonas aeruginosa, PAO1, read-out: MIC, Sensititre
Procedure: as §4

[19] = system: PAO1 mutant MIN8_2, pilZ(nt18InsT); assay: MIC, Sensititre custom plate; type: cell-based; details: Pseudomonas aeruginosa, PAO1, read-out: MIC, Sensititre
Procedure: as §4

[20] = system: PAO1 mutant MIN1_RW01_4, pmrB(F124L); assay: microbe, parasite or virus in culture; type: cell-based; details: Pseudomonas aeruginosa, PAO1, read-out: MIC, Sensititre
Procedure: as §4

[21] = system: PAO1 mutant MIN4_RW01_2, pmrB(F124S); assay: microbe, parasite or virus in culture; type: cell-based; details: Pseudomonas aeruginosa, PAO1, read-out: MIC, Sensititre
Procedure: as §4

| Structure (SMILES) | MIC (P. aeruginosa 125A) [µg/mL] | MIC (P. aeruginosa 125B) [µg/mL] | MIC (P. aeruginosa 41A) [µg/mL] | MIC (P. aeruginosa 41B) [µg/mL] | MIC (P. aeruginosa PAO1) [µg/mL] | MIC (P. aeruginosa PAOUW) [µg/mL] | MIC (P. aeruginosa PAOUW∆oprF) [µg/mL] | MIC (P. aeruginosa PAOΔmexR) [µg/mL] | MIC (P. aeruginosa PAOΔmexZ) [µg/mL] | MIC (P. aeruginosa PAOΔoprM) [µg/mL] | MIC [1] [µg/mL] | MIC [2] [µg/mL] | MIC [3] [µg/mL] | MIC [4] [µg/mL] | MIC [5] [µg/mL] | MIC [6] [µg/mL] | MIC [7] [µg/mL] | MIC [8] [µg/mL] | MIC [9] [µg/mL] | other results |
| --- | --- | --- | --- | --- | --- | --- | --- | --- | --- | --- | --- | --- | --- | --- | --- | --- | --- | --- | --- | --- |
| CCn1cc(C(=O)O)c(=O)c2cc(F)c(N3CCNCC3)cc21 [Norfloxacin, norfloxacin] | 1 | 1 | 2 | 4 | 0.5 | 4 | 1 | 1 | 1 | 0.25 | – | – | – | – | – | – | – | – | – | – |
| O=C(O)c1cn(C2CC2)c2cc(N3CCNCC3)c(F)cc2c1=O [CIP, ciprofloxacin] | – | – | – | – | – | – | – | – | – | – | 4 (≈ 12.1 µM) | 0.5 (≈ 1.51 µM) | 0.5 (≈ 1.51 µM) | 0.5 (≈ 1.51 µM) | 0.5 to 1 (≈ 1.51 to 3.02 µM) | 0.5 (≈ 1.51 µM) | 0.5 (≈ 1.51 µM) | 0.5 (≈ 1.51 µM) | 0.5 (≈ 1.51 µM) | – |
| NCC[C@H](O)C(=O)N[C@@H]1C[C@H](N)[C@@H](O[C@H]2O[C@H](CN)[C@@H](O)[C@H](O)[C@H]2O)[C@H](O)[C@H]1O[C@H]1O[C@H](CO)[C@@H](O)[C@H](N)[C@H]1O [AMI, amikacin] | – | – | – | – | – | – | – | – | – | – | ≤ 2 | ≤ 2 | ≤ 2 | 8 (≈ 13.7 µM) | 4 (≈ 6.83 µM) | ≤ 2 | 2 to 4 (≈ 3.42 to 6.83 µM) | ≤ 2 | ≤ 2 | MIC (P. aeruginosa PAO1, WT): ≤ 2 µg/mL; MIC [10]: 4 µg/mL (≈ 6.83 µM); MIC [11]: ≤ 2 µg/mL; MIC [12]: 4 µg/mL (≈ 6.83 µM); MIC [13]: 4 µg/mL (≈ 6.83 µM); MIC [14]: 4 µg/mL (≈ 6.83 µM); MIC [15]: 4 µg/mL (≈ 6.83 µM); MIC [16]: 4 µg/mL (≈ 6.83 µM); MIC [17]: 4 µg/mL (≈ 6.83 µM); MIC [18]: ≤ 2 µg/mL; MIC [19]: ≤ 2 µg/mL; MIC [20]: ≤ 2 µg/mL; MIC [21]: 4 µg/mL (≈ 6.83 µM) |
| C[C@H]1COc2c(N3CCN(C)CC3)c(F)cc3c(=O)c(C(=O)O)cn1c23 [Levofloxacin, levofloxacin] | 0.5 | 0.5 | 2 | 1 | 0.5 | 4 | 0.5 | 0.5 | 0.5 | 0.125 | – | – | – | – | – | – | – | – | – | – |
